According to patent US6458812B1, “Muscarinic antagonists” (Schering Corporation, priority 2000, dated 2002):
Structures can show the parent of a compound that is named as a salt.

Tests used:
[1] = Microsomal stability, rat; format: in vitro ADME; details: rat liver microsomes, 37° C.
Procedure: (§1) A solution of a compound of formula I at a final substrate concentration of […] and human, cynomolgus monkey or rat liver microsomes at final P450 concentrations of 0.18, 0.175 and 0.25 nmol/ml, respectively, is incubated in 0.1 M potassium phosphate buffer at pH 7.4 in 96-well micro-titre plates at 37° C. for 3 min in a shaking water bath. A cofactor solution containing MgCl2, Glucose-6-phosphate, NADPH, and Glucose-6-phosphate dehydrogenase is added to each sample (half the total incubation volume/sample) and the total incubation mixture is incubated for 0 and 30 min. (An n=3 samples is incubated for each compound). After each time point, an equal volume of CH3CN is added. The samples are mixed by vortexing and the plates are centrifuged at 3000 rpm for 20 min. The supernatant is analyzed by Liquid Chromatography Mass Spectrometry (LCMS) for parent drug and/or metabolites using an appropriate analytical method.

[2] = Microsomal stability, human; format: in vitro ADME; details: human liver microsomes, 37° C.
Procedure: as §1

[3] = Microsomal stability, monkey; format: in vitro ADME, cynomolgus monkey; details: monkey liver microsomes, 37° C.
Procedure: as §1

Compound	melting point [°C]	% remaining after 30 min. [1] [%]	% remaining after 30 min. [2] [%]	% remaining after 30 min. [3] [%]
C[C@H](NC(=O)c1ccc(CC2CCN(C3CCCCC3)CC2)cc1)c1ccc(F)cc1 (as salt: HCl) [Example 2]	234 to 235	–	–	–
C[C@H](NC(=O)c1ccc(CC2CCN(C3CCCCC3)CC2)cc1)c1ccc(F)cc1 [Example 2]	–	79	80	80
